Data: patent US7435407B2, “Inhibition of olfactory neurosensory function to treat eating disorders and obesity” (Compellis Pharmaceuticals, priority 2002, dated 2008)

Legend:
[1] = Food intake in food-deprived rats after intranasal administration; type: in vivo, rat
Method: Male Sprague-Dawley rats, 150-175 g at the start of the experiments (Charles River Laboratories, Wilmington, Mass.) were housed individually in suspended wire mesh cages; maintained on a reversed-lighting schedule (lights-on at 7 p.m., lights-off at 7 a.m.); and acclimated to our climate controlled animal facility and to the test diets for 7 days prior to experimentation. As the experiments in food-deprived rats were performed during the dark cycle, a dull red light (25 watt) was used to help with placement and weighing of the food jars.
Rats had ad libitum access to tap water and food (Rodent Laboratory Chow No. 5001-pellet form, Purina) on non-testing days. A mush diet, used for experiments on food-deprived animals, and composed of equal parts by weight of ground rodent chow (Purina, # 5001-meal form) and a 4% nutrient agar solution (Teklad Diets) was presented to the animals in glass jars. […]
One hour after administration, pre-weighed food jars were introduced into the cage and a sheet of clean white paper placed under each cage to catch any spillage. The amount of food consumed after 1, 2 and 4 hours was determined to the nearest 0.01 g. […]
One hour later pre-weighed food jars were introduced into the cage and a sheet of clean white paper placed under each cage to catch any spillage. The amount of food consumed after 1, 2 and 4 hours was determined to the nearest 0.01 g.

[2] = Rota-Rod test after intranasal administration; type: in vivo, rat; conditions: intranasal 1 mg/kg; 6 rpm; sessions 0-60 minutes after administration
Method: Two groups of rats (12 rats each) were tested. Each rat went through 8 sessions on the rota-rod: 3 sessions before drug administration (pretest, time −45, −30, and −15 minutes); 1 session immediately after the drug was administered (time 0); and 4 sessions after drug administration (time 15, 30, 45, and 60 minutes).
A speed of 6 rpm was used, and diltiazem was administered, as described above, intra-nasally at 1 mg/kg.

olfactory epithelium = assay: Electro-olfactory (EOG) recording of olfactory epithelium response to odorant Citralva; type: in vivo, mice; conditions: 10 μl/nostril intranasal, recording 10 min later
Method: A detailed description of the method employed is provided, e.g., by Wong et al. (Neuron 2000: 27: 487-97), and Scott (J Neurosci 2000; 15:4721-31). Briefly, six week old mice were used and each mouse was given 10 μl/nostril of Diltiazem at 10 μM, 100 μM, or saline. It was returned to home cage and euthanized 10 min later for electro-olfactory (EOG) recording. The odorant was Ciltralva at 5 μM. Also included was a “no treatment” control.

COc1ccc([C@@H]2Sc3ccccc3N(CCN(C)C)C(=O)[C@@H]2OC(C)=O)cc1 [diltiazem, Diltiazem]
optimal dose (concentration of solution) for reduction of food intake ([1]; dosing study, intranasal 20 μL/nostril, 0.02, 0.2 and 2 mg/kg, strong trend (FIG. 2)): 0.2-20 % w/v | amount of food consumed ([1]; intranasal 20 μL/nostril, 0.02-2 mg/kg, food given 1 hour after administration, consumed after 1, 2 and 4 hours, versus placebo (FIG. 1)): consumed significantly less food | activity (balance and agility) in Rota-Rod test, drug versus vehicle group [2]: no indications of a difference in activity | effect on olfactory nerve activity (EOG response to Citralva 5 μM) (olfactory epithelium; 10 μM): little effect | effect on olfactory nerve response (EOG response to Citralva 5 μM) (olfactory epithelium; 100 μM): blocked
